Measured values from patent US12528814B2, “Bifunctional degraders of interleukin-1 receptor-associated kinases and therapeutic use thereof” (NURIX THERAPEUTICS, INC., priority 2020, dated 2026).
Where two headings read alike, the source gives them in different places.

What was measured:
IRAK4 [1] = molecular target: T1, IRAK4 (Homo sapiens (Human), UniProt Q9NWZ3); test: IRAK4 Biochemical HTRF Kinase Assay; settings: read-out: IRAK4 HTRF biochemical: IC50
Method in brief: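 IC50 values derive from non-linear regression of sixteen concentrations in duplicate. Kinase reaction ran 90 min at ambient temperature after adding 5 μM STK-S1 substrate, 10 mM ATP and 10 mM MgCl2 (reaction-solution levels, pre-dilution to 10 μl); phospho-peptide detected by HTRF after 60 min.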
Target sequence in this assay (Q9NWZ3 whole entry, species assumed): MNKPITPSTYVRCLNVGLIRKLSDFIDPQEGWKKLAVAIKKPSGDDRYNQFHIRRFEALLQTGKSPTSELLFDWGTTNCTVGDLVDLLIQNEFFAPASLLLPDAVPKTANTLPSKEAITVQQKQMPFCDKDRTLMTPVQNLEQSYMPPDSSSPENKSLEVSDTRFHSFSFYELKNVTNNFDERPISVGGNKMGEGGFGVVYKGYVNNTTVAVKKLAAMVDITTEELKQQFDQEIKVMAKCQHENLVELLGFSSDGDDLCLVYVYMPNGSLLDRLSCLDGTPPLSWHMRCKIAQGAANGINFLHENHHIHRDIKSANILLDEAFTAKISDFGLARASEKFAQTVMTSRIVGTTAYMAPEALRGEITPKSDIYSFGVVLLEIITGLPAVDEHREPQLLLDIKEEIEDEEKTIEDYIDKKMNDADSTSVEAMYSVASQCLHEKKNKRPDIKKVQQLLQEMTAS

IRAK4 [2] = molecular target: T1, IRAK4; test: IRAK4 Degradation HiBiT Assay; settings: HiBiT-tagged Jurkat cells, 4 hrs; for Dmax: Jurkat; for DC50: read-out: Cellular IRAK4 HiBiT: DC50
Target sequence in this assay (Q9NWZ3 whole entry): as the sequence (Q9NWZ3 whole entry, species assumed) above

[3] = read-out: Cellular IRAK4 HiBiT: Dmax, Table 4
[4] = read-out: Cellular IRAK4 HiBiT: Dmax, Table 5, multiple runs

IC50 (IRAK4 [1]; Table 4) [nM]	IC50 (IRAK4 [1]; Table 5, multiple runs) [nM]	Dmax (IRAK4 [2]; [3]) [%]	Dmax (IRAK4 [2]; [4]) [%]	DC50 (IRAK4 [2]; Table 4) [nM]	DC50 (IRAK4 [2]; Table 5, multiple runs) [nM]	Structure (SMILES)
10.4	10.4	34	34	128	128	Cc1ncsc1-c1ccc([C@H](C)NC(=O)[C@@H]2C[C@@H](O)CN2C(=O)[C@@H](NC(=O)CCCCCCCCCC(=O)N2CCN(c3nnc(-c4cnc(-c5ccc6cc(C#N)cnn56)cc4NC(C)C)s3)CC2)C(C)(C)C)cc1 [Example 38, (2S,4R)-1-((S)-2-(11-(4-(5-(6-(3-cyanopyrrolo[1,2-b]pyridazin-7-yl)-4-(isopropylamino)pyridin-3-yl)-1,3,4-thiadiazol-2-yl)piperazin-1-yl)-11-oxoundecanamido)-3,3-dimethylbutanoyl)-4-hydroxy-N—((S)-1-(4-(4-methylthiazol-5-yl)phenyl)ethyl)pyrrolidine-2-carboxamide]
5	5	97	97	357	357	Cc1ncsc1-c1ccc([C@H](C)NC(=O)[C@@H]2C[C@@H](O)CN2C(=O)[C@@H](NC(=O)CCCCC(=O)N2CCN(c3nnc(-c4cnc(-c5ccc6cc(C#N)cnn56)cc4NC(C)C)s3)CC2)C(C)(C)C)cc1 [Example 39, (2S,4R)-1-((S)-2-(6-(4-(5-(6-(3-cyanopyrrolo[1,2-b]pyridazin-7-yl)-4-(isopropylamino)pyridin-3-yl)-1,3,4-thiadiazol-2-yl)piperazin-1-yl)-6-oxohexanamido)-3,3-dimethylbutanoyl)-4-hydroxy-N—((S)-1-(4-(4-methylthiazol-5-yl)phenyl)ethyl)pyrrolidine-2-carboxamide]
3.6	3.6	53	53	420	419	Cc1ncsc1-c1ccc([C@H](C)NC(=O)[C@@H]2C[C@@H](O)CN2C(=O)[C@@H](NC(=O)CCC(=O)N2CCN(c3nnc(-c4cnc(-c5ccc6cc(C#N)cnn56)cc4NC(C)C)s3)CC2)C(C)(C)C)cc1 [Example 40, (2S,4R)-1-((S)-2-(4-(4-(5-(6-(3-cyanopyrrolo[1,2-b]pyridazin-7-yl)-4-(isopropylamino)pyridin-3-yl)-1,3,4-thiadiazol-2-yl)piperazin-1-yl)-4-oxobutanamido)-3,3-dimethylbutanoyl)-4-hydroxy-N—((S)-1-(4-(4-methylthiazol-5-yl)phenyl)ethyl)pyrrolidine-2-carboxamide]
1.3	1.3	44	47	872	1330	Cc1ncsc1-c1ccc([C@H](C)NC(=O)[C@@H]2C[C@@H](O)CN2C(=O)[C@@H](NC(=O)CCOCCOCCOCCOCCOCCC(=O)N2CCN(c3nnc(-c4cnc(-c5ccc6cc(C#N)cnn56)cc4NC(C)C)s3)CC2)C(C)(C)C)cc1 [Example 41, (2S,4R)-1-((S)-2-(tert-butyl)-22-(4-(5-(6-(3-cyanopyrrolo[1,2-b]pyridazin-7-yl)-4-(isopropylamino)pyridin-3-yl)-1,3,4-thiadiazol-2-yl)piperazin-1-yl)-4,22-dioxo-7,10,13,16,19-pentaoxa-3-azadocosanoyl)-4-hydroxy-N—((S)-1-(4-(4-methylthiazol-5-yl)phenyl)ethyl)pyrrolidine-2-carboxamide]
17.3	17.3	104	104	336	315	Cc1ncsc1-c1ccc(CNC(=O)[C@@H]2C[C@@H](O)CN2C(=O)[C@@H](NC(=O)C2(F)CC2)C(C)(C)C)c(OCCCCCC(=O)N2CCN(c3nnc(-c4cnc(-c5ccc6cc(C#N)cnn56)cc4NC(C)C)s3)CC2)c1 [Example 42, (2S,4R)—N-(2-((6-(4-(5-(6-(3-cyanopyrrolo[1,2-b]pyridazin-7-yl)-4-(isopropylamino)pyridin-3-yl)-1,3,4-thiadiazol-2-yl)piperazin-1-yl)-6-oxohexyl)oxy)-4-(4-methylthiazol-5-yl)benzyl)-1-((S)-2-(1-fluorocyclopropane-1-carboxamido)-3,3-dimethylbutanoyl)-4-hydroxypyrrolidine-2-carboxamide]
24.1	24	78	67	1170	1090	Cc1ncsc1-c1ccc(CNC(=O)[C@@H]2C[C@@H](O)CN2C(=O)[C@@H](NC(=O)C2(F)CC2)C(C)(C)C)c(OCCCCCCCC(=O)N2CCN(c3nnc(-c4cnc(-c5ccc6cc(C#N)cnn56)cc4NC(C)C)s3)CC2)c1 [Example 43, (2S,4R)—N-(2-((8-(4-(5-(6-(3-cyanopyrrolo[1,2-b]pyridazin-7-yl)-4-(isopropylamino)pyridin-3-yl)-1,3,4-thiadiazol-2-yl)piperazin-1-yl)-8-oxooctyl)oxy)-4-(4-methylthiazol-5-yl)benzyl)-1-((S)-2-(1-fluorocyclopropane-1-carboxamido)-3,3-dimethylbutanoyl)-4-hydroxypyrrolidine-2-carboxamide]
702	702	33		> 10000	> 9980	Cc1ncsc1-c1ccc(CNC(=O)[C@@H]2C[C@@H](O)CN2C(=O)[C@@H](NC(=O)C2(F)CC2)C(C)(C)C)c(OCCCCCCCCCC(=O)N2CCN(c3nnc(-c4cnc(-c5ccc6cc(C#N)cnn56)cc4NC(C)C)s3)CC2)c1 [Example 44, (2S,4R)—N-(2-((10-(4-(5-(6-(3-cyanopyrrolo[1,2-b]pyridazin-7-yl)-4-(isopropylamino)pyridin-3-yl)-1,3,4-thiadiazol-2-yl)piperazin-1-yl)-10-oxodecyl)oxy)-4-(4-methylthiazol-5-yl)benzyl)-1-((S)-2-(1-fluorocyclopropane-1-carboxamido)-3,3-dimethylbutanoyl)-4-hydroxypyrrolidine-2-carboxamide]
19	19	67	83	4330	2490	Cc1ncsc1-c1ccc(CNC(=O)[C@@H]2C[C@@H](O)CN2C(=O)C(NC(=O)[C@H]2CC[C@H](C(=O)N3CCN(c4nnc(-c5cnc(-c6ccc7cc(C#N)cnn67)cc5NC(C)C)s4)CC3)CC2)C(C)(C)C)cc1 (stereo partly drawn) [Example 45, (2S,4R)-1-((S)-2-((1r,4S)-4-(4-(5-(6-(3-cyanopyrrolo[1,2-b]pyridazin-7-yl)-4-(isopropylamino)pyridin-3-yl)-1,3,4-thiadiazol-2-yl)piperazine-1-carbonyl)cyclohexane-1-carboxamido)-3,3-dimethylbutanoyl)-4-hydroxy-N-(4-(4-methylthiazol-5-yl)benzyl)pyrrolidine-2-carboxamide]
15.4	15.4	78	73	1570	1240	Cc1ncsc1-c1ccc(CNC(=O)[C@@H]2C[C@@H](O)CN2C(=O)C(NC(=O)[C@H]2CC[C@H](CN3CCN(c4nnc(-c5cnc(-c6ccc7cc(C#N)cnn67)cc5NC(C)C)s4)CC3)CC2)C(C)(C)C)cc1 (stereo partly drawn) [Example 46, (2S,4R)-1-((S)-2-((1r,4S)-4-((4-(5-(6-(3-cyanopyrrolo[1,2-b]pyridazin-7-yl)-4-(isopropylamino)pyridin-3-yl)-1,3,4-thiadiazol-2-yl)piperazin-1-yl)methyl)cyclohexane-1-carboxamido)-3,3-dimethylbutanoyl)-4-hydroxy-N-(4-(4-methylthiazol-5-yl)benzyl)pyrrolidine-2-carboxamide]
